Data as given in PubChem BioAssay (NCI).
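Five compound concentrations were applied to cells in 96-well plates for 48 hours; endpoints were derived by simple linear interpolation of the resulting dose-response curve. TGI: concentration producing complete growth inhibition.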

What was measured:
Assay in all cases: NCI tumour cell line growth inhibition, 48 h
U251 CNS = system: U251 CNS
A498 renal = system: A498 renal
RPMI-8226 leukemia = system: RPMI-8226 leukemia
SK-MEL-2 melanoma = system: SK-MEL-2 melanoma
SF-268 CNS = system: SF-268 CNS
NCI-H522 lung = system: NCI-H522 lung
HOP-92 NSCLC = system: HOP-92 NSCLC
OVCAR-8 ovarian = system: OVCAR-8 ovarian
OVCAR-3 ovarian = system: OVCAR-3 ovarian
MOLT-4 leukemia = system: MOLT-4 leukemia
UACC-62 melanoma = system: UACC-62 melanoma
LOX IMVI melanoma = system: LOX IMVI melanoma
NCI/ADR-RES ovarian = system: NCI/ADR-RES ovarian
KM12 colon = system: KM12 colon
NCI-H23 lung = system: NCI-H23 lung
K-562 leukemia = system: K-562 leukemia
COLO 205 colon = system: COLO 205 colon
KM20L2 colon = system: KM20L2 colon
NCI-H460 lung = system: NCI-H460 lung
SNB-75 CNS = system: SNB-75 CNS
DLD-1 colon = system: DLD-1 colon
CCRF-CEM leukemia = system: CCRF-CEM leukemia
EKVX NSCLC = system: EKVX NSCLC
HT29 colon = system: HT29 colon
MALME-3M melanoma = system: MALME-3M melanoma
SNB-19 CNS = system: SNB-19 CNS
M19-MEL melanoma = system: M19-MEL melanoma
UACC-257 melanoma = system: UACC-257 melanoma
MCF7 breast = system: MCF7 breast
SNB-78 CNS = system: SNB-78 CNS
DMS 273 small cell lung = system: DMS 273 small cell lung
HCT-15 colon = system: HCT-15 colon
SN12C renal = system: SN12C renal
SK-MEL-28 melanoma = system: SK-MEL-28 melanoma
OVCAR-4 ovarian = system: OVCAR-4 ovarian
SF-539 CNS = system: SF-539 CNS
XF 498 CNS = system: XF 498 CNS
OVCAR-5 ovarian = system: OVCAR-5 ovarian
SK-MEL-5 melanoma = system: SK-MEL-5 melanoma
SN12K1 renal = system: SN12K1 renal
HOP-62 NSCLC = system: HOP-62 NSCLC
P388/ADR leukemia = system: P388/ADR leukemia
IGROV1 ovarian = system: IGROV1 ovarian
HCC-2998 colon = system: HCC-2998 colon
RXF 393 renal = system: RXF 393 renal
HOP-18 NSCLC = system: HOP-18 NSCLC
DMS 114 small cell lung = system: DMS 114 small cell lung
SW-620 colon = system: SW-620 colon
HL-60(TB) leukemia = system: HL-60(TB) leukemia
A549 NSCLC = system: A549 NSCLC
UO-31 renal = system: UO-31 renal
SK-OV-3 ovarian = system: SK-OV-3 ovarian
HCT-116 colon = system: HCT-116 colon
P388 leukemia = system: P388 leukemia
NCI-H226 lung = system: NCI-H226 lung
SF-295 CNS = system: SF-295 CNS
SR leukemia = system: SR leukemia
TK-10 renal = system: TK-10 renal
RXF-631 renal = system: RXF-631 renal
CAKI-1 renal = system: CAKI-1 renal
M14 melanoma = system: M14 melanoma

Measured: TGI

O=C1CSc2sc(=S)sc2S1
> 100 µM: U251 CNS | RPMI-8226 leukemia | SK-MEL-2 melanoma | SF-268 CNS | NCI-H522 lung | HOP-92 NSCLC | OVCAR-8 ovarian | OVCAR-3 ovarian | MOLT-4 leukemia | UACC-62 melanoma | LOX IMVI melanoma | NCI/ADR-RES ovarian | KM12 colon | NCI-H23 lung | K-562 leukemia | COLO 205 colon | KM20L2 colon | NCI-H460 lung | SNB-75 CNS | DLD-1 colon | CCRF-CEM leukemia | EKVX NSCLC | HT29 colon | MALME-3M melanoma | SNB-19 CNS | M19-MEL melanoma | UACC-257 melanoma | MCF7 breast | DMS 273 small cell lung | HCT-15 colon | SN12C renal | SK-MEL-28 melanoma | OVCAR-4 ovarian | SF-539 CNS | XF 498 CNS | OVCAR-5 ovarian | SK-MEL-5 melanoma | SN12K1 renal | HOP-62 NSCLC | IGROV1 ovarian | HCC-2998 colon | RXF 393 renal | HOP-18 NSCLC | DMS 114 small cell lung | SW-620 colon | HL-60(TB) leukemia | A549 NSCLC | UO-31 renal | SK-OV-3 ovarian | HCT-116 colon | P388 leukemia | NCI-H226 lung | SF-295 CNS
> 78.6 µM: A498 renal
99.2 µM: SNB-78 CNS
97.8 µM: P388/ADR leukemia

COc1ccccc1/C=C1\N=C(C)OC1=O
> 100 µM: U251 CNS | SK-MEL-2 melanoma | SR leukemia | NCI-H522 lung | HOP-92 NSCLC | OVCAR-8 ovarian | OVCAR-3 ovarian | MOLT-4 leukemia | UACC-62 melanoma | KM12 colon | NCI-H23 lung | TK-10 renal | K-562 leukemia | COLO 205 colon | KM20L2 colon | DLD-1 colon | CCRF-CEM leukemia | HT29 colon | MALME-3M melanoma | SNB-19 CNS | M19-MEL melanoma | SNB-78 CNS | RXF-631 renal | HCT-15 colon | SN12C renal | SK-MEL-28 melanoma | OVCAR-4 ovarian | CAKI-1 renal | XF 498 CNS | OVCAR-5 ovarian | SK-MEL-5 melanoma | IGROV1 ovarian | HCC-2998 colon | RXF 393 renal | SW-620 colon | UO-31 renal | SK-OV-3 ovarian | SF-295 CNS | M14 melanoma
